Consider 90 compounds from a melting point compilation (Tetko et al.; mined from patent text by program, amines drawn as free bases though some values may be those of a salt).

Molecules are shown by their SMILES.

One may read the melting point as the temperature of the solid-liquid transition. Consider `CCOC(=O)C(=CNc1ccc(CO)cc1I)C(=O)OCC`, for which the melting point was in the range of 152 to 154 °C.

For `O=Cc1ccc(OCc2ccccc2F)c(Cc2ccccc2F)c1`, the melting point was found to be 71 °C.

In turn, `COC(=O)c1c(N)ncn1C1c2ccccc2CC1(C)C` (stereo not given) had a melting point of 100 to 105 °C.

`CSc1nc(C)cc(OC(F)F)n1`: the melting point lay in the range of 40 to 42 °C.

With `CCc1noc(-c2cc3c(cn2)[nH]c2cccc(Oc4ccc(Cl)cn4)c23)n1`, the melting point lay in the range of 259 to 260 °C.

The compound `CC(O)CNc1c(Br)cnc2cc(Cl)ccc12` (stereo not given) came in with a melting point of 161 to 163 °C.

The compound `OC/C=C/C=C(c1ccccc1)c1ccccc1` gave a melting point of 71 to 72 °C.

Compound `CO/C(=C\C=C\c1cc2cc(Br)ccc2[nH]1)C(=O)O` returned a melting point of 208 to 210 °C.

With `OCc1cccc(C(O)(C(F)(F)F)C(F)(F)F)n1`, the melting point lay in the range of 62 to 63 °C.

`COc1ccc([N+](=O)[O-])c(CS(=O)(=O)c2ccccc2)c1` displayed a melting point of 167 to 169 °C.

Take `CC1NC(=O)COC1=O` (stereo not given): the melting point was in the range of 139 to 141 °C.

Regarding `CCOC(=O)c1ccc(/C=C(\C)c2ccc3c(c2)OCCCC3)cc1`, the melting point was 71 to 72 °C.

In the case of `CCCCc1oc2ccccc2c1C(=O)c1cc(Br)c(O[C@H](Cc2ccccc2)C(=O)O)c(Br)c1`, the melting point fell in the range of 56 to 58 °C.

The compound `N#Cc1cccnc1N1CCN(CNC(=O)c2ccccc2Cl)CC1` registered a melting point of 137 to 139 °C.

In turn, `Ic1ccc(C2CCCCO2)cc1-c1cc(C2CCCCO2)ccc1I` (stereo not given) registered a melting point of 112 to 113 °C.

The compound `O=C(O)c1csc(NC(=O)C(CC2CCCC2)c2ccc(Cl)c(Cl)c2)n1` (stereo not given) gave a melting point of 285 to 287 °C.

With `COc1cc2c(cc1OC)C(C)(CC(=O)O)OCC2` (stereo not given), the melting point is 89 to 92 °C.

Compound `CC(=O)CCC(=O)c1ccccc1` yielded a melting point of 31 °C.

`CC=CCNc1cc(C(=O)O)cc(S(N)(=O)=O)c1Nc1ccc(N)cc1` returned a melting point of 208 °C.

Compound `O=C(NC12CC3CC(CC1C3)C2)c1ccncc1C(c1ccc(O)cc1)c1ccc(O)cc1` gave a melting point of 218 to 220 °C.

Compound `O=C(OCc1ccccc1)c1ncn2c1[C@@H]1CCN1C(=O)c1c(Cl)cccc1-2` displayed a melting point of 180 to 182 °C.

For `CNc1cn(-c2cncc(F)c2)nc1C`, the melting point was 142 to 144 °C.

Regarding `COc1ccc(C=CC(=O)c2cccc(OC)c2OC)cc1Oc1ccccc1`, the melting point lay within 63.3 to 64 °C.

Compound `COc1ccc2c(c1)C(=O)C(=Cc1cccnc1)CO2` had a melting point of 127 to 131 °C.

`CSc1ccc(C(=O)NCc2ccc3c(c2)C(=O)N(C2CCC(=O)NC2=O)C3=O)nc1` (stereo not given): the melting point was 185 to 187 °C.

With `Cc1cc(C)c(-c2ccnc(Nc3ccc(F)cc3)n2)[nH]1`, the melting point was in the range of 168 to 172 °C.

As for `Cc1csc(C(=O)c2[nH]c3cc(Cl)ccc3c2CC(=O)O)n1`, the melting point lay within 239 to 240 °C.

With `N#Cc1ccc2nc(-c3cccc(Br)c3)cn2c1`, the melting point fell in the range of 205 to 206 °C.

For the compound `CN1CCN(c2ccc(-n3c(-c4cc(-c5cnc6[nH]ccc6c5)ccn4)cn(C)c3=O)cc2C(F)(F)F)CC1`, the melting point came out at 241 °C.

In the case of `Cc1cc(C)cc(NCc2ccc3nc(NC4CCN(CCO)CC4)n(Cc4nc(C)ccc4O)c3c2)c1`, the melting point was 144 °C.

`CCC(C)OC(=O)C(S)(C#N)C1=NC(C)Cc2cc(OC)c(OC)cc21` (stereo not given) gave a melting point of 113 to 114 °C.

Consider `Cc1nc2cc(NC(=O)Nc3ccc(C(F)(F)F)cc3)ccc2o1`, for which the melting point was in the range of 240 to 243 °C.

Regarding `NC(=O)C1CCC2(CC1)OCCO2`, the melting point fell in the range of 167 to 170 °C.

Take `O=c1ncc(Cl)cn1CC=CCl`: the melting point fell in the range of 102 to 104 °C.

In the case of `CCC1CC(=O)C(C(=O)NS(=O)(=O)c2ccc(C)cc2)C(=O)C1` (stereo not given), the melting point is 86 to 87 °C.

`CCCCCCN1c2ccc(OC)cc2C(C)(C)C12C=Cc1cc([N+](=O)[O-])cc(OC)c1S2` (stereo not given) came in with a melting point of 97 to 98 °C.

Regarding `Cc1nn(-c2cc3nc(S)sc3cc2Br)c(=O)n1C(F)F`, the melting point is 254 to 256 °C.

For `O=C(O)COc1c(Br)cc(-c2c3ccccc3c(Br)c3oc4ccccc4c23)c(O)c1Br`, the melting point lay in the range of 194 to 240 °C.

For the compound `O=C1Cc2cc(Cl)cc(C(=O)c3ccccc3)c2N1`, the melting point was in the range of 186 to 187 °C.

For `Cc1cccc2cc3c(=O)n(CCCN4CCCC4=O)cc(C(=O)NCCN(C)C)c3nc12`, the melting point was in the range of 170 to 171 °C.

As for `CC(C)CCOc1c(-c2ccc(S(N)(=O)=O)cc2)cnn(C(C)(C)C)c1=O`, the melting point lay in the range of 153 to 155 °C.

For the compound `CNc1c(C)cc(C(C)(C)c2ccc(C(C)(C)c3cc(C)c(NC)c(C)c3)cc2)cc1C`, the melting point lay in the range of 110 to 115 °C.

For `Nc1ccc(C(=O)C(O)c2ccccc2)cc1` (stereo not given), the melting point is 199 to 203 °C.

The compound `O=Cc1c(Cl)nc2ccc(Cl)cn12` gave a melting point of 165 to 166 °C.

For the compound `N#Cc1c(N2CCN(C(=O)c3cccs3)CC2)c2cccnc2n(CC(=O)c2ccccc2)c1=O`, the melting point stood at 269 °C.

`CNc1nccc2c1nnn2Cc1ccccc1`: the melting point is 269 to 273 °C.

Compound `CCCCNS(=O)(=O)CC(O)C(O)C(CC1CCCCC1)NC(=O)[C@H](CC(C)C)NC(=O)C(Cc1ccccc1)CS(=O)(=O)C(C)(C)C` (stereo not given in full) showed a melting point of 87 to 101 °C.

Turning to `CCOC(=O)c1c(C)nn2ccc3c(c12)C(CC#N)CC3` (stereo not given), the melting point fell in the range of 136 to 140 °C.

With `Cc1cccc2ncc(C(=O)Nc3ccc(F)cc3)c(=O)n12`, the melting point lay within 202 to 204 °C.

`C/C(=N/O)[C@@H]1C[C@H](C(=O)OC(C)(C)C)N(C(=O)CNC(=O)Nc2cccc(C)c2)[C@@H]1c1ccccc1` (racemic): the melting point is 166 °C.

`COc1ccc(C(=O)Nc2ccccc2)cc1NCc1cc(Cl)cc(Cl)c1` displayed a melting point of 164 to 165 °C.

In turn, `Clc1ccc2c(NCc3ccccc3)nc(-n3ccnc3)nc2c1` displayed a melting point of 265 to 268 °C.

Regarding `COC(=O)c1ccc(N2CCOCC2)cc1`, the melting point lay within 152 to 154 °C.

`CN1C(=O)CC[C@]2(C)c3ccc(-c4cccc5cccnc45)cc3CC[C@@H]12`: the melting point was 205 to 207 °C.

For the compound `COc1ccc(OC)c(CCc2ccc3ncnc(N)c3c2)c1`, the melting point is 160 to 165 °C.

The compound `COc1ccc(-n2c(-c3cc(-c4ccc(S(C)(=O)=O)cc4)c(N4CCOCC4)s3)nc3ccccc3c2=O)cc1` came in with a melting point of 240 to 243 °C.

For `Cn1c(=O)c(C(=O)O)c(-c2ccccc2)c2cc(Cl)ccc21`, the melting point was 242 to 243 °C.

The compound `C=CCN1CCC23c4c5ccc(O)c4OC2C(C)C(=NO)CC3(O)C1C5` (stereo not given) showed a melting point of 128 to 129 °C.

As to `O=C1NC(=O)c2c1c(-c1ccccc1)cc1c2c2cc(O)ccc2n1CCCCCCBr`, the melting point fell in the range of 214 to 216 °C.

Regarding `O=C(OCC(CO)(CO)COC(=O)c1ccccc1)c1ccccc1`, the melting point was in the range of 104 to 105 °C.

Compound `COc1cc(N2CCN(C)CC2)ccc1-c1nc2c(N[C@H]3[C@@H](C(N)=O)[C@@H]4C=C[C@H]3C4)c(Br)cnc2[nH]1` yielded a melting point of 185 to 195 °C.

Compound `Cc1c(C#N)c(O)cc2nc(Cc3ccccc3)nn12` registered a melting point of 319 to 320 °C.

For `C=C(C)C(=O)c1ccc2c(c1)oc(=O)n2C`, the melting point turned out to be 127 °C.

As to `CCCCS(=O)(=O)c1ncn(C(=O)N(CCC)CCC)n1`, the melting point is 38.5 to 39.5 °C.

Compound `Cc1cc2c(cc1C)C(O)(c1ccccc1Cl)C(=O)N2` (stereo not given) displayed a melting point of 251 to 253 °C.

Consider `COc1ccccc1OC1CCN(C(=O)Cl)C1` (stereo not given), for which the melting point fell in the range of 80 to 81 °C.

`COC(=O)c1cccc(NC(=O)NS(=O)(=O)c2ccc(C)cc2)c1` registered a melting point of 178 to 180 °C.

`C#Cc1cc(Nc2ncnc3cnc(F)cc23)ccc1Cl` yielded a melting point of 218 to 222 °C.

In turn, `O=C(/C=C/c1cccc(S(=O)(=O)N2CCN(Cc3ccc4c(c3)OCO4)CC2)c1)NO` showed a melting point of 172 °C.

Consider `CC(C)(C)C1CCc2nc(N)nc(N)c2C1` (stereo not given), for which the melting point was over 250 °C.

As for `ON=C1CCc2c1sc1c2CCCC1`, the melting point was in the range of 174 to 176 °C.

Compound `COC(=O)c1cccc(-c2ccc(O)cc2)c1` had a melting point of 135 to 136 °C.

`COc1ccc(-n2c(CC(=O)O)c(C(=O)O)c3cc(Oc4ccc(OC(C)C)cc4)ccc32)cc1` returned a melting point of 226 °C.

Regarding `C=CCOc1cc(C)c2ccc(=O)oc2c1`, the melting point amounted to 83 °C.

`COC(=O)CCCCC(=O)c1ccc(F)cc1`: the melting point lay in the range of 41 to 43 °C.

In turn, `COP(=O)(Cc1nc2cc3c(cc2nc1C(=O)OC(C)(C)C)OC(C)(C)O3)OC` displayed a melting point of 86.3 to 87.9 °C.

For `CSc1nccc(-c2c(-c3ccc(F)cc3)ncn2C2CCNCC2)n1`, the melting point is 182 to 183 °C.

On to `O=C(CC(=O)Nc1ccc2c(c1)NC(=O)/C2=C\c1ccc[nH]1)Nc1ccc(F)cc1`, for which the melting point was over 300 °C.

`Cc1nc(N2CCOCC2)ccc1N1CCCn2c1nc1c(Cl)ccc(C(OC(F)F)C(F)(F)F)c12` (stereo not given) registered a melting point of 191 to 193 °C.

As for `COCN1C(C)=C(C(=O)O)C(c2ccccc2C(F)(F)F)C(C(=O)O)=C1C`, the melting point lay within 172 to 173 °C.

Take `CC(C)(C)NS(=O)(=O)c1c(C(F)F)nsc1OCC(F)(F)F`: the melting point lay within 105 to 106 °C.

`NC(=O)NCCNc1ccc([N+](=O)[O-])cc1`: the melting point was 187 °C.

On to `CCOC(=O)N1CCC(Nc2nc3cncnc3n2Cc2ccccc2)CC1`, for which the melting point was 157 °C.

In the case of `COc1ccc(C(=O)Nc2c(Cl)cncc2Cl)c2c1OCC2CC(=O)O` (stereo not given), the melting point is 259 to 263 °C.

`CCCCCCCCOC(=O)NCCCCCCNC(=O)OCCCCCCCC` registered a melting point of 106 to 107 °C.

`O=C(Cn1c(-c2ccccc2)ncc(NC(=O)OCc2ccccc2)c1=O)NC(Cc1ccccc1)C(O)C(F)(F)F` (stereo not given) yielded a melting point of 198 to 202 °C.

Regarding `CCOc1cc(=O)oc2cc(CBr)ccc12`, the melting point is 150 to 153 °C.

Compound `CCOc1ccc(-c2cc(C(F)(F)F)n3ncc(-c4cccnc4)c3n2)cc1C(F)(F)F` returned a melting point of 178 °C.

`COc1ccc2[nH]c3c(c2c1)CCSCCC3` gave a melting point of 122 to 124 °C.

Take `CCCCCNc1nc(NC(C)C)c2ncn(CC(=O)O)c2n1`: the melting point fell in the range of 173 to 176 °C.
